# Experimental data from patent publication US20210198277A1, “AMINE-SUBSTITUTED ARYL OR HETEROARYL COMPOUNDS” (Epizyme, Inc., priority 2016, published 2021).
# Target: T1, EHMT2 (Homo sapiens, UniProt Q96KQ7)
# T1 construct: host or cells: MDA-MB-231
# T1 sequence (Q96KQ7 1-1210): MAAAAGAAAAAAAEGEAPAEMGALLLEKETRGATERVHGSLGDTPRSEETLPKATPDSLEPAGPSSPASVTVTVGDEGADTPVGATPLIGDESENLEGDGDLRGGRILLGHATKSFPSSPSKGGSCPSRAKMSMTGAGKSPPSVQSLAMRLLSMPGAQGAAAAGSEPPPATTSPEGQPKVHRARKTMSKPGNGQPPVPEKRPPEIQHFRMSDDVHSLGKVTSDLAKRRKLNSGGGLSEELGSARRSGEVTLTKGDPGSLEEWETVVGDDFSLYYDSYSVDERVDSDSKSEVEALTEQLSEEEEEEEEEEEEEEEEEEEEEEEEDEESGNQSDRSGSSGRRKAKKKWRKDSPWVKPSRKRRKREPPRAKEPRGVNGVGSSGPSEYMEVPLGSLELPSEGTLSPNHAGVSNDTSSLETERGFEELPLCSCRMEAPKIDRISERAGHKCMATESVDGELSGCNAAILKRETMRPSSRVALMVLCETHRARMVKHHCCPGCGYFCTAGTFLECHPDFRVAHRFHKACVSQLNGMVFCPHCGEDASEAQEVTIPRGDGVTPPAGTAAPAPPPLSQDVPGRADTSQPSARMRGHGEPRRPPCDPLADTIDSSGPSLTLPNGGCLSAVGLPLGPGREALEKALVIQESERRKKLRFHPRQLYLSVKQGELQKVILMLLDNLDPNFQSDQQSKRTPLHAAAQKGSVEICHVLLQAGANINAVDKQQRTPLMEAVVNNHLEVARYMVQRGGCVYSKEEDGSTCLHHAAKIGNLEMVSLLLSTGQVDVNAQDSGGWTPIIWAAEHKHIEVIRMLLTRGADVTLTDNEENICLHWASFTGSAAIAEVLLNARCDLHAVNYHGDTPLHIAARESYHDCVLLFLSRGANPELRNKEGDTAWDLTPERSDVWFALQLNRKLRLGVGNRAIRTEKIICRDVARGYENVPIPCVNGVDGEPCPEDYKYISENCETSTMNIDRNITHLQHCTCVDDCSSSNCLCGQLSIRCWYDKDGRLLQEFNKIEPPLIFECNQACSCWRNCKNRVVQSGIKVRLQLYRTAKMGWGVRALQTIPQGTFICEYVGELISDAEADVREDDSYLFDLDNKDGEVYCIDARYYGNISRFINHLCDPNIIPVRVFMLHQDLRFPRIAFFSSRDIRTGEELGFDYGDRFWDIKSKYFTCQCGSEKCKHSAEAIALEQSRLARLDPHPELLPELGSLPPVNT
# Experiment: MDA-MB-231 H3K9me2 in-cell Western assay (EHMT2 ICW)
# Format: cell-based
# Settings: Table II; MDA-MB-231 H3K9me2 in-cell Western; read-out: EHMT2 ICW (IC50 μM)
# Summary of the method: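 IC50 values came from a variable-slope four-parameter fit on triplicate wells, using % inhibition from the 800/700 nm infrared signal ratio (anti-H3K9me2 versus DRAQ5 DNA stain). Before fixation and immunostaining, MDA-MB-231 cells, 3,000 per well, were exposed to compound for 48 h at 37 °C.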
row,IC50 [µM],Compound
1,1 to 10,CNc1cncc(Nc2ccc(OC)c(OCCCN3CCCC3)c2)n1 [Compound 247]
2,1 to 10,COc1ccc(Nc2nccc(NCC3(O)CCCCC3)n2)cc1OCCCN1CCCC1 [Compound 45]
3,1 to 10,CNC(=O)CNc1ccnc(Nc2ccc(OC)c(OCCCN3CCCC3)c2)n1 [Compound 41]
4,> 10,COc1ccc(Nc2ccc3cnn(C)c3c2)cc1OCCCN1CCCC1 [Compound 217]
5,> 10,"COc1ccc(Nc2nccc(NCC3CCNCC3)n2)cc1OCCCN1CCOCC1 [Compound 16, N^2-(4-methoxy-3-(3-morpholinopropoxy)phenyl)-N^4-(piperidin-4-ylmethyl)pyrimidine-2,4-diamine]"
6,0.1 to 1,CNc1cc(Nc2cc(OCCCN3CCCC3)c(OC)cn2)ccn1 [Compound 248]
7,1 to 10,CNc1ccnc(Nc2cccc(OC[C@H](O)CN3CCCC3)c2)n1 [Compound 252]
8,> 10,CNc1nc(Nc2ccc(OC)c(OCCCN3CCCC3)c2)ncc1C#N [Compound 233]
9,0.1 to 1,COc1ccc(Nc2nccc(NCc3ccccn3)n2)cc1OCCCN1CCCC1 [Compound 23]
10,> 10,COc1ccc(Nc2ccc3ncc(C)n3n2)cc1OCCCN1CCCC1 [Compound 223]
11,1 to 10,COc1ccc(Nc2nccc(NCCCN(C)C(C)=O)n2)cc1OCCCN1CCCC1 [Compound 44]
12,> 10,COc1ccc(Nc2cccc3cn(C)nc23)cc1OCCCN1CCCC1 [Compound 222]
13,> 10,COc1ccc(Nc2cnnc(NCC3CCN(C(C)=O)CC3)c2)cc1OCCCN1CCCC1 [Compound 242]
14,0.1 to 1,COc1ccc(Nc2nccc(NCc3ccccc3)n2)cc1OCCCN1CCCC1 [Compound 21]
15,0.1 to 1,COc1ccc(Nc2nccc(NCc3ccncc3)n2)cc1OCCCN1CCCC1 [Compound 24]
16,1 to 10,COc1ccc(Nc2nccc(NCCOc3ccccc3)n2)cc1OCCCN1CCCC1 [Compound 40]
17,> 10,COc1ccc(Nc2nccc(NCC3CCOCC3)n2)cc1OC1CC2(C1)CN(C)C2 [Compound 243]
18,0.1 to 1,COc1ccc(Nc2nccc(NCC3CCCC3)n2)cc1OCCCN1CCCC1 [Compound 34]
19,0.1 to 1,COCCNc1ccnc(Nc2ccc(OC)c(OCCCN3CCCC3)c2)n1 [Compound 27]

row,IC50 [µM],Compound
1,> 10,COc1ccc(Nc2nccc3[nH]ncc23)cc1OCCCN1CCCC1 [Compound 249]
2,1 to 10,"CNc1ccnc(Nc2cccc(OCCCN3CCCC3)c2)n1 [Compound 207, N^4-methyl-N^2-(3-(3-(pyrrolidin-1-yl)propoxy)phenyl)pyrimidine-2,4-diamine]"
3,0.1 to 1,COc1ccc(Nc2nccc(NCCc3ccncc3)n2)cc1OCCCN1CCCC1 [Compound 39]
4,> 10,COc1ccc(Nc2ccnc(NCC3CCN(C(C)=O)CC3)n2)cc1OCCCN1CCCC1 [Compound 216]
5,> 10,CNc1ccnc(Nc2ccc(OC)c(OCCN3CCOCC3)c2)n1 [Compound 237]
6,> 10,CNc1cnnc(Nc2ccc(OC)c(OCCCN3CCCC3)c2)c1 [Compound 246]
7,> 10,COc1ccc(Nc2ncc3ncn(C)c3n2)cc1OCCCN1CCCC1 [Compound 219]
8,> 10,CNc1ccnc(Nc2cccc(OC[C@@H](O)CN3CCCC3)c2)n1 [Compound 253]
9,0.1 to 1,COc1ccc(Nc2nccc(NCc3cccnc3)n2)cc1OCCCN1CCCC1 [Compound 25]
10,0.1 to 1,COc1ccc(CNc2ccnc(Nc3ccc(OC)c(OCCCN4CCCC4)c3)n2)cc1 [Compound 28]
11,1 to 10,COc1ccc(Nc2nccc(NCC3(O)CCOCC3)n2)cc1OCCCN1CCCC1 [Compound 49]
12,1 to 10,COc1ccc(Nc2nccc(NCC(C)(C)O)n2)cc1OCCCN1CCCC1 [Compound 42]
13,0.1 to 1,COc1ccccc1CNc1ccnc(Nc2ccc(OC)c(OCCCN3CCCC3)c2)n1 [Compound 36]
14,> 10,CC(C)Nc1ccnc(Nc2cccc(OCCCN3CC[C@@H](F)C3)c2)n1 [Compound 251]
15,> 10,CNc1ccnc(Nc2ccc(F)c(OCCCN3CCCC3)c2)n1 [Compound 244]
16,> 10,CNc1cc(C)nc(Nc2ccc(F)c(OCCCN3CCCC3)c2)n1 [Compound 232]
17,< 0.1,"CNc1cc(C)nc(Nc2ccc(OC)c(OCCCN3CCCC3)c2)n1 [Compound 205, N^2-(4-methoxy-3-(3-(pyrrolidin-1-yl)propoxy)phenyl)-N^4,6-dimethylpyrimidine-2,4-diamine]"
18,1 to 10,CNc1ccnc(Nc2ccc(OC)c(OCCCN3CC(F)C3)c2)n1 [Compound 230]
19,0.1 to 1,COc1ccc(Nc2nccc(NCCc3cccnc3)n2)cc1OCCCN1CCCC1 [Compound 37]

row,IC50 [µM],Compound
1,0.1 to 1,COc1ccc(Nc2nccc(NC(C)C)n2)cc1OCCCN1CCCC1 [Compound 20]
2,> 10,CNc1ccnc(Nc2ccc3c(c2)N(C(=O)CCN(C)C)CC3)n1 [Compound 239]
3,1 to 10,COc1ccc(Nc2nccc(Nc3cccc(F)c3)n2)cc1OCCCN1CCCC1 [Compound 225]
4,> 10,CNc1cc(Nc2ccc(OC)c(OCCCN3CCCC3)c2)ccn1 [Compound 206]
5,> 10,CNCc1cnc(Nc2ccc(OC)c(OCCCN3CCCC3)c2)nc1 [Compound 215]
6,0.1 to 1,COc1ccc(Nc2nccc(NCc3nc4ccccc4[nH]3)n2)cc1OCCCN1CCCC1 [Compound 31]
7,> 10,"COc1ccc(Nc2nccc(NCC3CCNCC3)n2)cc1CCNCC1CCCC1 [Compound 17, N^2-(3-(2-((cyclopentylmethyl)amino)ethyl)-4-methoxyphenyl)-N^4-(piperidin-4-ylmethyl)pyrimidine-2,4-diamine]"
8,> 10,COc1ccc(Nc2ccc3nn(C)cc3c2)cc1OCCCN1CCCC1 [Compound 221]
9,0.1 to 1,COc1ccc(Nc2nccc(NCC3CCN(C(C)C)CC3)n2)cc1OCCCN1CCCC1 [Compound 29]
10,0.1 to 1,CCc1cc(NC)nc(Nc2ccc(OC)c(OCCCN3CCCC3)c2)n1 [Compound 240]
11,1 to 10,CNc1ccnc(Nc2ccc(OC)c(OCCCN3CC[C@@H](F)C3)c2)n1 [Compound 229]
12,1 to 10,"COc1ccc(Nc2nccc(NCC3CCN(C(C)=O)CC3)n2)cc1OCCCN1CCCC1 [Compound 47, 1-(4-(((2-((4-methoxy-3-(3-(pyrrolidin-1-yl)propoxy)phenyl)amino)pyrimidin-4-yl)amino)methyl)piperidin-1-yl)ethan-1-one]"
13,> 10,COc1ccc(Nc2nccc(-c3cnn(C)c3)n2)cc1OCCCN1CCCC1 [Compound 224]
14,0.1 to 1,COc1cccc(CNc2ccnc(Nc3ccc(OC)c(OCCCN4CCCC4)c3)n2)c1 [Compound 26]
15,1 to 10,CNc1nc(C)cc(Nc2ccc(OC)c(OCCCN3CCCC3)c2)n1 [Compound 208]
16,1 to 10,COc1ccc(Nc2nccc(NCC3CCN(C(C)=O)CC3)n2)cc1COCCN1CCCC1 [Compound 48]
17,1 to 10,"CNc1ccnc(Nc2ccc(OC)c(OCCCN3CCCC3)c2)c1 [Compound 209, N^2-(4-methoxy-3-(3-(pyrrolidin-1-yl)propoxy)phenyl)-N^4-methylpyridine-2,4-diamine]"
18,> 10,CNc1ncc(C(F)(F)F)c(Nc2ccc(OC)c(OCCCN3CCCC3)c2)n1 [Compound 235]
19,1 to 10,COc1ccc(Nc2nccc(NCC3CCOCC3)n2)cc1NCCCN1CCCC1 [Compound 226]
